Assay results as given in article PMC10178848, “Modulating fast skeletal muscle contraction protects skeletal muscle in animal models of Duchenne muscular dystrophy” (The Journal of Clinical Investigation, 2023).

Tested on: mdx mouse EDL muscle
Assay: Phosphoprotein array analysis (Cell Signaling Phospho Antibody Array)
Procedure: mdx mouse EDL muscle was prepared for ex vivo analysis as described (n = 5). Muscles were incubated for 1 hour with DMSO or EDG-5506 (5 μM) and then flash frozen in liquid nitrogen. Tissue preparation and analysis were performed as recommended by the manufacturer (Cell Signaling Phospho Antibody Array, Full Moon Biosystems).

## O=c1ccc(-c2cnc(OCC(F)(F)F)nc2)nn1Cc1cncc(F)c1 [EDG-5506]
4000031744 (T)
  Data Normalized to Median Signal: CDK1/CDC2 (Phospho-Tyr15): 0.89
  Data Normalized to Median Signal: CREB (Phospho-Ser133): 0.81
  Data Normalized to Median Signal: CaMK2-beta/gamma/delta (Phospho-Thr287): 1.20
  Data Normalized to Median Signal: CaMK2A (Phospho-Thr286): 0.85
  Data Normalized to Median Signal: Caspase 8 (Phospho-Ser347): 1.06
  Data Normalized to Median Signal: Caspase 9 (Phospho-Ser196): 2.98
  Data Normalized to Median Signal: Catenin beta (Phospho-Thr41/Ser45): 0.90
  Data Normalized to Median Signal: Chk2 (Phospho-Thr68): 0.66
  Data Normalized to Median Signal: Cyclin D1 (Phospho-Thr286): 2.47
  Data Normalized to Median Signal: Cyclin E1 (Phospho-Thr77): 1.57
  Data Normalized to Median Signal: DARPP-32 (Phospho-Thr34): 0.93
  Data Normalized to Median Signal: EEF2 (Phospho-Thr56): 1.33
  Data Normalized to Median Signal: FADD (Phospho-Ser194): 2.10
  Data Normalized to Median Signal: FAK (Phospho-Ser910): 1.62
  Data Normalized to Median Signal: FGFR1 (Phospho-Tyr654): 2.43
  Data Normalized to Median Signal: GRK2 (Phospho-Ser29): 1.51
  Data Normalized to Median Signal: GSK3 alpha/beta (Phospho-Tyr216/279): 1.02
  Data Normalized to Median Signal: Gab2 (Phospho-Tyr643): 4.36
  Data Normalized to Median Signal: HDAC1 (Phospho-Ser421): 1.53
  Data Normalized to Median Signal: HDAC2 (Phospho-Ser394): 1.45
  Data Normalized to Median Signal: HSP90B (Phospho-Ser226): 2.09
  Data Normalized to Median Signal: IKK-beta (Phospho-Tyr188): 1.11
  Data Normalized to Median Signal: IKK-beta (Phospho-Tyr199): 1.14
  Data Normalized to Median Signal: IKK-gamma (Phospho-Ser31): 0.98
  Data Normalized to Median Signal: IL-4R/CD124 (Phospho-Tyr497): 1.35
  Data Normalized to Median Signal: IL-10R-alpha (Phospho-Tyr496): 1.26
  Data Normalized to Median Signal: IkB-alpha (Phospho-Ser32/36): 8.76
  Data Normalized to Median Signal: Integrin beta-3 (Phospho-Tyr773): 0.89
  Data Normalized to Median Signal: JunB (Phospho-Ser259): 0.90
  Data Normalized to Median Signal: LYN (Phospho-Tyr507): 1.16
  Data Normalized to Median Signal: Lamin A/C (Phospho-Ser392): 0.81
  Data Normalized to Median Signal: MEK1 (Phospho-Ser217): 0.66
  Data Normalized to Median Signal: NFkB-p65 (Phospho-Ser311): 0.96
  Data Normalized to Median Signal: NFkB-p65 (Phospho-Ser529): 54.58
  Data Normalized to Median Signal: NFkB-p100/p52 (Phospho-Ser865): 1.13
  Data Normalized to Median Signal: P38 MAPK (Phospho-Thr180/Tyr182): 1.99
  Data Normalized to Median Signal: P70S6K (Phospho-Ser424): 0.97
  Data Normalized to Median Signal: P90RSK (Phospho-Thr359/Ser363): 1.39
  Data Normalized to Median Signal: PDK1 (Phospho-Ser241): 1.70
  Data Normalized to Median Signal: PLCG1 (Phospho-Tyr783): 7.48
  Data Normalized to Median Signal: PLK1 (Phospho-Thr210): 0.61
  Data Normalized to Median Signal: PP2A-alpha (Phospho-Tyr307): 0.97
  Data Normalized to Median Signal: PPAR-gamma (Phospho-Ser112): 1.23
  Data Normalized to Median Signal: Rb (Phospho-Ser807): 0.99
  Data Normalized to Median Signal: RelB (Phospho-Ser552): 2.68
  Data Normalized to Median Signal: SAPK/JNK (Phospho-Tyr185): 0.87
  Data Normalized to Median Signal: SHP-2 (Phospho-Tyr542): 1.06
  Data Normalized to Median Signal: STAT3 (Phospho-Tyr705): 0.90
  Data Normalized to Median Signal: STAT4 (Phospho-Tyr693): 43.74
  Data Normalized to Median Signal: STAT6 (Phospho-Thr645): 0.94
  Data Normalized to Median Signal: SYK (Phospho-Tyr348): 1.04
  Data Normalized to Median Signal: Smad1 (Phospho-Ser187): 1.71
  Data Normalized to Median Signal: Smad2 (Phospho-Ser467): 1.05
  Data Normalized to Median Signal: Smad2/3 (Phospho-Thr8): 2.11
  Data Normalized to Median Signal: Smad3 (Phospho-Ser213): 1.56
  Data Normalized to Median Signal: Src (Phospho-Tyr418): 9.05
  Data Normalized to Median Signal: Tau (Phospho-Ser396): 0.88
  Data Normalized to Median Signal: VEGFR2 (Phospho-Tyr1175): 0.88
  Data Normalized to Median Signal: Zap-70 (Phospho-Tyr319): 1.25
  Data Normalized to Median Signal: c-Jun (Phospho-Ser73): 0.98
  Data Normalized to Median Signal: p44/42 MAP Kinase (Phospho-Tyr204): 0.86
  Data Normalized to Median Signal: p53 (Phospho-Ser15): 1.59
T vs C
  Fold Change between Samples T/C: 4E-BP1 (Phospho-Thr45): 0.89
  Fold Change between Samples T/C: ACC1 (Phospho-Ser80): 1.12
  Fold Change between Samples T/C: AMPKbeta1 (Phospho-Ser182): 0.97
  Fold Change between Samples T/C: B-RAF (Phospho-Ser446): 1.05
  Fold Change between Samples T/C: BAX (Phospho-Thr167): 0.95
  Fold Change between Samples T/C: BCL-XL (Phospho-Ser62): 1.23
  Fold Change between Samples T/C: BLNK (Phospho-Tyr96): 0.62
  Fold Change between Samples T/C: CBL (Phospho-Tyr700): 0.88
  Fold Change between Samples T/C: CDK1/CDC2 (Phospho-Tyr15): 0.83
  Fold Change between Samples T/C: CREB (Phospho-Ser133): 0.74
  Fold Change between Samples T/C: CaMK2-beta/gamma/delta (Phospho-Thr287): 0.92
  Fold Change between Samples T/C: CaMK2A (Phospho-Thr286): 0.86
  Fold Change between Samples T/C: Caspase 8 (Phospho-Ser347): 1.08
  Fold Change between Samples T/C: Caspase 9 (Phospho-Ser196): 0.94
  Fold Change between Samples T/C: Catenin beta (Phospho-Thr41/Ser45): 0.83
  Fold Change between Samples T/C: Chk2 (Phospho-Thr68): 0.51
  Fold Change between Samples T/C: Cyclin D1 (Phospho-Thr286): 1.18
  Fold Change between Samples T/C: Cyclin E1 (Phospho-Thr77): 1.02
  Fold Change between Samples T/C: DARPP-32 (Phospho-Thr34): 0.91
  Fold Change between Samples T/C: EEF2 (Phospho-Thr56): 1.12
  Fold Change between Samples T/C: FADD (Phospho-Ser194): 1.53
  Fold Change between Samples T/C: FAK (Phospho-Ser910): 1.09
  Fold Change between Samples T/C: FGFR1 (Phospho-Tyr654): 1.35
  Fold Change between Samples T/C: GRK2 (Phospho-Ser29): 1.26
  Fold Change between Samples T/C: GSK3 alpha/beta (Phospho-Tyr216/279): 0.97
  Fold Change between Samples T/C: Gab2 (Phospho-Tyr643): 1.59
  Fold Change between Samples T/C: HDAC1 (Phospho-Ser421): 1.25
  Fold Change between Samples T/C: HDAC2 (Phospho-Ser394): 0.90
  Fold Change between Samples T/C: HSP90B (Phospho-Ser226): 1.00
  Fold Change between Samples T/C: IKK-beta (Phospho-Tyr188): 1.01
  Fold Change between Samples T/C: IKK-beta (Phospho-Tyr199): 0.84
  Fold Change between Samples T/C: IKK-gamma (Phospho-Ser31): 0.98
  Fold Change between Samples T/C: IL-4R/CD124 (Phospho-Tyr497): 0.93
  Fold Change between Samples T/C: IL-10R-alpha (Phospho-Tyr496): 0.85
  Fold Change between Samples T/C: IkB-alpha (Phospho-Ser32/36): 1.11
  Fold Change between Samples T/C: Integrin beta-3 (Phospho-Tyr773): 0.93
  Fold Change between Samples T/C: JunB (Phospho-Ser259): 0.79
  Fold Change between Samples T/C: LYN (Phospho-Tyr507): 1.06
  Fold Change between Samples T/C: Lamin A/C (Phospho-Ser392): 0.80
  Fold Change between Samples T/C: MEK1 (Phospho-Ser217): 0.62
  Fold Change between Samples T/C: NFkB-p65 (Phospho-Ser311): 1.00
  Fold Change between Samples T/C: NFkB-p65 (Phospho-Ser529): 0.82
  Fold Change between Samples T/C: NFkB-p100/p52 (Phospho-Ser865): 0.88
  Fold Change between Samples T/C: P38 MAPK (Phospho-Thr180/Tyr182): 0.35
  Fold Change between Samples T/C: P70S6K (Phospho-Ser424): 1.00
  Fold Change between Samples T/C: P90RSK (Phospho-Thr359/Ser363): 0.95
  Fold Change between Samples T/C: PDK1 (Phospho-Ser241): 1.14
  Fold Change between Samples T/C: PLCG1 (Phospho-Tyr783): 2.25
  Fold Change between Samples T/C: PLK1 (Phospho-Thr210): 0.60
  Fold Change between Samples T/C: PP2A-alpha (Phospho-Tyr307): 0.93
  Fold Change between Samples T/C: PPAR-gamma (Phospho-Ser112): 1.26
  Fold Change between Samples T/C: Rb (Phospho-Ser807): 0.91
  Fold Change between Samples T/C: RelB (Phospho-Ser552): 0.76
  Fold Change between Samples T/C: SAPK/JNK (Phospho-Tyr185): 0.84
  Fold Change between Samples T/C: SHP-2 (Phospho-Tyr542): 0.91
  Fold Change between Samples T/C: STAT3 (Phospho-Tyr705): 0.92
  Fold Change between Samples T/C: STAT4 (Phospho-Tyr693): 1.04
  Fold Change between Samples T/C: STAT6 (Phospho-Thr645): 0.89
  Fold Change between Samples T/C: SYK (Phospho-Tyr348): 0.91
  Fold Change between Samples T/C: Smad1 (Phospho-Ser187): 1.60
  Fold Change between Samples T/C: Smad2 (Phospho-Ser467): 1.00
  Fold Change between Samples T/C: Smad2/3 (Phospho-Thr8): 1.25
  Fold Change between Samples T/C: Smad3 (Phospho-Ser213): 1.26
  Fold Change between Samples T/C: Src (Phospho-Tyr418): 0.77
